In PubChem BioAssay (NCI):
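Exposure lasted 48 hours, with cells grown in 96-well plates and compounds tested at five concentrations. GI50 = concentration required for 50% inhibition of growth. TGI: concentration producing complete growth inhibition.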

Experiments:
Assay in all cases: growth of human tumour cells (NCI), 48 h
MDA-MB-435 = tested on: MDA-MB-435
SF-539 CNS = tested on: SF-539 CNS
HCC-2998 colon = tested on: HCC-2998 colon
OVCAR-4 ovarian = tested on: OVCAR-4 ovarian
OVCAR-3 ovarian = tested on: OVCAR-3 ovarian
MDA-MB-231 breast = tested on: MDA-MB-231 breast
HCT-15 colon = tested on: HCT-15 colon
RPMI-8226 leukemia = tested on: RPMI-8226 leukemia
SR leukemia = tested on: SR leukemia
IGROV1 ovarian = tested on: IGROV1 ovarian
MOLT-4 leukemia = tested on: MOLT-4 leukemia
NCI-H460 lung = tested on: NCI-H460 lung
MCF7 breast = tested on: MCF7 breast
M14 melanoma = tested on: M14 melanoma
UACC-62 melanoma = tested on: UACC-62 melanoma
COLO 205 colon = tested on: COLO 205 colon
BT-549 breast = tested on: BT-549 breast
UO-31 renal = tested on: UO-31 renal
HS 578T breast = tested on: HS 578T breast
HL-60(TB) leukemia = tested on: HL-60(TB) leukemia
T-47D breast = tested on: T-47D breast
SW-620 colon = tested on: SW-620 colon
SK-MEL-28 melanoma = tested on: SK-MEL-28 melanoma
CCRF-CEM leukemia = tested on: CCRF-CEM leukemia
MALME-3M melanoma = tested on: MALME-3M melanoma
HCT-116 colon = tested on: HCT-116 colon
A498 renal = tested on: A498 renal
HOP-92 NSCLC = tested on: HOP-92 NSCLC
TK-10 renal = tested on: TK-10 renal
NCI/ADR-RES ovarian = tested on: NCI/ADR-RES ovarian
SNB-75 CNS = tested on: SNB-75 CNS
NCI-H226 lung = tested on: NCI-H226 lung
PC-3 prostate = tested on: PC-3 prostate
OVCAR-8 ovarian = tested on: OVCAR-8 ovarian
RXF 393 renal = tested on: RXF 393 renal
SK-MEL-5 melanoma = tested on: SK-MEL-5 melanoma
CAKI-1 renal = tested on: CAKI-1 renal
SN12C renal = tested on: SN12C renal
OVCAR-5 ovarian = tested on: OVCAR-5 ovarian
KM12 colon = tested on: KM12 colon
SK-OV-3 ovarian = tested on: SK-OV-3 ovarian
SF-295 CNS = tested on: SF-295 CNS
DU-145 prostate = tested on: DU-145 prostate
786-0 renal = tested on: 786-0 renal
U251 CNS = tested on: U251 CNS
HOP-62 NSCLC = tested on: HOP-62 NSCLC
A549 NSCLC = tested on: A549 NSCLC
K-562 leukemia = tested on: K-562 leukemia
SF-268 CNS = tested on: SF-268 CNS
HT29 colon = tested on: HT29 colon
SNB-19 CNS = tested on: SNB-19 CNS
LOX IMVI melanoma = tested on: LOX IMVI melanoma
UACC-257 melanoma = tested on: UACC-257 melanoma
ACHN renal = tested on: ACHN renal
SK-MEL-2 melanoma = tested on: SK-MEL-2 melanoma

Cc1ccc(NC2=C(Cl)C(=O)c3nc(C)ccc3C2=O)c(C)c1
GI50 (MDA-MB-435): 1960 nM
TGI (MDA-MB-435): 3.81 µM
GI50 (SF-539 CNS): 1700 nM
TGI (SF-539 CNS): 3.21 µM
GI50 (HCC-2998 colon): 1750 nM
TGI (HCC-2998 colon): 3.31 µM
GI50 (OVCAR-4 ovarian): 1530 nM
TGI (OVCAR-4 ovarian): 3.02 µM
GI50 (OVCAR-3 ovarian): 1420 nM
TGI (OVCAR-3 ovarian): 2840 nM
GI50 (MDA-MB-231 breast): 1890 nM
TGI (MDA-MB-231 breast): 4.44 µM
GI50 (HCT-15 colon): 1300 nM
TGI (HCT-15 colon): 3.19 µM
GI50 (RPMI-8226 leukemia): 1540 nM
TGI (RPMI-8226 leukemia): 4.34 µM
GI50 (SR leukemia): 1280 nM
TGI (SR leukemia): 4.19 µM
GI50 (IGROV1 ovarian): 1850 nM
TGI (IGROV1 ovarian): 3.88 µM
GI50 (MOLT-4 leukemia): 1600 nM
TGI (MOLT-4 leukemia): 4.83 µM
GI50 (NCI-H460 lung): 1990 nM
TGI (NCI-H460 lung): 4.17 µM
GI50 (MCF7 breast): 1400 nM
TGI (MCF7 breast): 3.58 µM
GI50 (M14 melanoma): 1620 nM
TGI (M14 melanoma): 3.08 µM
GI50 (UACC-62 melanoma): 2000 nM
TGI (UACC-62 melanoma): 4.01 µM
GI50 (COLO 205 colon): 2060 nM
TGI (COLO 205 colon): 4.28 µM
GI50 (BT-549 breast): 1440 nM
TGI (BT-549 breast): 2820 nM
GI50 (UO-31 renal): 1560 nM
TGI (UO-31 renal): 3.15 µM
GI50 (HS 578T breast): 2280 nM
TGI (HS 578T breast): 5.95 µM
GI50 (HL-60(TB) leukemia): 1740 nM
TGI (HL-60(TB) leukemia): 4.48 µM
GI50 (T-47D breast): 1660 nM
TGI (T-47D breast): 4.14 µM
GI50 (SW-620 colon): 2150 nM
TGI (SW-620 colon): 4.65 µM
GI50 (SK-MEL-28 melanoma): 1950 nM
TGI (SK-MEL-28 melanoma): 3.84 µM
GI50 (CCRF-CEM leukemia): 2020 nM
TGI (CCRF-CEM leukemia): 6 µM
GI50 (MALME-3M melanoma): 1960 nM
TGI (MALME-3M melanoma): 3.9 µM
GI50 (HCT-116 colon): 1520 nM
TGI (HCT-116 colon): 3.25 µM
GI50 (A498 renal): 1610 nM
TGI (A498 renal): 6.59 µM
GI50 (HOP-92 NSCLC): 2080 nM
TGI (HOP-92 NSCLC): 4.35 µM
GI50 (TK-10 renal): 2150 nM
TGI (TK-10 renal): 3.68 µM
GI50 (NCI/ADR-RES ovarian): 2170 nM
TGI (NCI/ADR-RES ovarian): 6.52 µM
GI50 (SNB-75 CNS): 1490 nM
TGI (SNB-75 CNS): 3.08 µM
GI50 (NCI-H226 lung): 1810 nM
TGI (NCI-H226 lung): 4.63 µM
GI50 (PC-3 prostate): 1560 nM
TGI (PC-3 prostate): 3.66 µM
GI50 (OVCAR-8 ovarian): 2410 nM
TGI (OVCAR-8 ovarian): 7.11 µM
GI50 (RXF 393 renal): 1410 nM
TGI (RXF 393 renal): 2760 nM
GI50 (SK-MEL-5 melanoma): 1670 nM
TGI (SK-MEL-5 melanoma): 3.08 µM
GI50 (CAKI-1 renal): 1730 nM
TGI (CAKI-1 renal): 3.34 µM
GI50 (SN12C renal): 1950 nM
TGI (SN12C renal): 5.03 µM
GI50 (OVCAR-5 ovarian): 2260 nM
TGI (OVCAR-5 ovarian): 4.33 µM
GI50 (KM12 colon): 1740 nM
TGI (KM12 colon): 3.29 µM
GI50 (SK-OV-3 ovarian): 2750 nM
TGI (SK-OV-3 ovarian): 10.6 µM
GI50 (SF-295 CNS): 1820 nM
TGI (SF-295 CNS): 3.43 µM
GI50 (DU-145 prostate): 1710 nM
TGI (DU-145 prostate): 3.22 µM
GI50 (786-0 renal): 2000 nM
TGI (786-0 renal): 4.4 µM
GI50 (U251 CNS): 1760 nM
TGI (U251 CNS): 3.37 µM
GI50 (HOP-62 NSCLC): 1710 nM
TGI (HOP-62 NSCLC): 3.16 µM
GI50 (A549 NSCLC): 2220 nM
TGI (A549 NSCLC): 5.2 µM
GI50 (K-562 leukemia): 1620 nM
TGI (K-562 leukemia): 5.54 µM
GI50 (SF-268 CNS): 1860 nM
TGI (SF-268 CNS): 4.16 µM
GI50 (HT29 colon): 2610 nM
TGI (HT29 colon): 7.34 µM
GI50 (SNB-19 CNS): 1940 nM
TGI (SNB-19 CNS): 4.34 µM
GI50 (LOX IMVI melanoma): 1140 nM
TGI (LOX IMVI melanoma): 3.88 µM
GI50 (UACC-257 melanoma): 1500 nM
TGI (UACC-257 melanoma): 2920 nM
GI50 (ACHN renal): 1910 nM
TGI (ACHN renal): 3.72 µM
GI50 (SK-MEL-2 melanoma): 1930 nM
TGI (SK-MEL-2 melanoma): 3.88 µM
